Results published in patent EP3708565A1, “PYRIMIDINYLOXYPHENYLAMIDINES AND THE USE THEREOF AS FUNGICIDES” (Bayer AG, priority 2020, dated 2020).

Columns and labels:
[1] = LogP measurement by HPLC on reversed phase columns (EEC directive 79/831 Annex V.A8); assay type: physicochemical
Protocol: If more than one LogP value is available within the same method, all the values are given and separated by "+".
Lambda-max-values were determined using UV-spectra from 200 nm to 400 nm and the peak values of the chromatographic signals.

Puccinia recondita = experiment: in vivo preventive test on Puccinia recondita (brown rust on wheat); details: for pest or weed control at 500 ppm: Puccinia recondita, 264 h, 500 ppm of active ingredient, young wheat plants sprayed, inoculated after 24 hours, evaluated 11 days after the inoculation, read-out: efficacy; for efficacy: 500 ppm
Protocol: Example: in vivo preventive test on Puccinia recondita (brown rust on wheat)
(§1) The active ingredients were made soluble and homogenized in a mixture of Dimethyl sulfoxide/Acetone/ /Tween® 80 and then diluted in water to the desired concentration.
The young plants of wheat were treated by spraying the active ingredient prepared as described above. Control plants were treated only with an aqueous solution of Acetone/Dimethyl sulfoxide/ Tween® 80.
After 24 hours, the plants were contaminated by spraying the leaves with an aqueous suspension of Puccinia recondita spores. The contaminated wheat plants were incubated for 24 hours at 20°C and at 100% relative humidity and then for 10 days at 20°C and at 70-80% relative humidity.
The test was evaluated 11 days after the inoculation. 0% means an efficacy which corresponds to that of the control plants while an efficacy of 100% means that no disease was observed.

Sphaerotheca fuliginea = experiment: in vivo preventive test on Sphaerotheca fuliginea (powdery mildew on cucurbits); details: 500 ppm of active ingredient, young gherkin plants sprayed, inoculated after 24 hours, evaluated 8 days after the inoculation; for pest or weed control at 500 ppm: Podosphaera fuliginea, 192 h, read-out: efficacy
Protocol: Example: in vivo preventive test on Sphaerotheca fuliginea (powdery mildew on cucurbits)
as §1
The young plants of gherkin were treated by spraying the active ingredient prepared as described above. Control plants were treated only with an aqueous solution of Acetone/Dimethyl sulfoxide/ […].
After 24 hours, the plants were contaminated by spraying the leaves with an aqueous suspension of Sphaerotheca fuliginea spores. The contaminated gherkin plants were incubated for 8 days at 20°C and at 70-80% relative humidity.
The test was evaluated 8 days after the inoculation. 0% means an efficacy which corresponds to that of the control plants while an efficacy of 100% means that no disease was observed.

Phakospora pachyrhizi = experiment: in vivo preventive test on Phakospora pachyrhizi (soybean rust); details: for pest or weed control at 500 ppm: Glycine max, 288 h, 500 ppm of active ingredient, young soybean plants sprayed, inoculated after 24 hours, evaluated 12 days after the inoculation, read-out: efficacy; for efficacy: 500 ppm
Protocol: Example: in vivo preventive test on Phakospora pachyrhizi (soybean rust)
as §1
The young plants of soybean were treated by spraying the active ingredient prepared as described above. Control plants were treated only with an aqueous solution of Acetone/Dimethyl sulfoxide/ […].
After 24 hours, the plants were contaminated by spraying the leaves with an aqueous suspension of Phakosporapachyrhizi spores. The contaminated soybean plants were incubated for 24 hours at 24°C and at 100% relative humidity and then for 11 days at 24°C and at 70-80% relative humidity.
The test was evaluated 12 days after the inoculation. 0% means an efficacy which corresponds to that of the control plants while an efficacy of 100% means that no disease was observed.

[2] = reversed phase HPLC column, method [a]: LC-UV, acidic range, 0.1% formic acid in water and acetonitrile as eluent
[3] = reversed phase HPLC column, method [b]: LC-UV, neutral range, 0.001 molar ammonium acetate solution in water and acetonitrile as eluent
[4] = method [a]: LC-UV, acidic range, 0.1% formic acid in water and acetonitrile as eluent
[5] = method [b]: LC-UV, neutral range, 0.001 molar ammonium acetate solution in water and acetonitrile as eluent

SMILES | chromatographic logP [1, 2] | chromatographic logP [1, 3] | chromatographic logP [1, 4] | chromatographic logP [1, 5] | pest or weed control at 500 ppm (Puccinia recondita) [%] | pest or weed control at 500 ppm (Sphaerotheca fuliginea) [%] | pest or weed control at 500 ppm (Phakospora pachyrhizi) [%] | efficacy (Puccinia recondita) | efficacy (Sphaerotheca fuliginea) | efficacy (Phakospora pachyrhizi)
CCN(C)C=Nc1cc(C)c(Oc2cc(C)nc(SC)n2)cc1C [I.033, N'-[2,5-dimethyl-4-(6-methyl-2-methylsulfanylpyrimidin-4-yl)oxyphenyl]-N-ethyl-N-methyl-methanimidamide] | 1.34 | 4.16 | – | – | ≥ 70 | ≥ 70 | ≥ 70 | – | – | –
CCN(C)C=Nc1cc(C)c(Oc2ccnc(/C=C/C(C)(C)C)n2)cc1C [I.034, N'-[4-[2-[(E)-3,3-dimethylbut-1-enyl]pyrimidin-4-yl]oxy-2,5-dimethylphenyl]-N-ethyl-N-methylmethanimidamide] | 1.66 | 4.94 | – | – | ≥ 70 | ≥ 70 | ≥ 70 | – | – | –
CCN(C)C=Nc1cc(C)c(Oc2ccnc(OC3CCCC3)n2)cc1C [I.041, N'-[4-(2-cyclopentyloxypyrimidin-4-yl)oxy-2,5-dimethylphenyl]-N-ethyl-N-methylmethanimid-amide] | – | – | 1.6 | 4.67 | – | – | – | at least 70% | at least 70% | at least 70%
CCN(C)C=Nc1cc(C)c(Oc2ccnc(SCC[Si](C)(C)C)n2)cc1C [I.043, N'-[2,5-dimethyl-4-[2-(2-trimethylsilylethylsulfanyl)pyrimidin-4-yl]oxyphenyl]-N-ethyl-N-methylmethanimidamide] | – | – | 2.17 | – | ≥ 70 | ≥ 70 | ≥ 70 | – | – | –
CCN(C)C=Nc1cc(C#N)c(Oc2ccnc(C(C)(C)C)n2)cc1C [I.044, N'-[4-(2-tert-butylpyrimidin-4-yl)oxy-5-cyano-2-methylphenyl]-N-ethyl-N-methylmethanimid-amide] | – | – | 1.41 | 4.29 | – | – | – | at least 70% | at least 70% | at least 70%

Second part, led by results:

chromatographic logP [1, 2] | chromatographic logP [1, 3] | chromatographic logP [1, 4] | chromatographic logP [1, 5] | SMILES | pest or weed control at 500 ppm (Puccinia recondita) [%] | pest or weed control at 500 ppm (Sphaerotheca fuliginea) [%] | pest or weed control at 500 ppm (Phakospora pachyrhizi) [%] | efficacy (Puccinia recondita) | efficacy (Sphaerotheca fuliginea) | efficacy (Phakospora pachyrhizi)
1.55 | – | – | – | CCCSc1nccc(Oc2cc(C)c(N=CN(C)CC)cc2C(F)F)n1 [I.036, N'-[5-(difluoromethyl)-2-methyl-4-(2-propylsulfanylpyrimidin-4-yl)oxyphenyl]-N-ethyl-N-methylmethanimidamide] | ≥ 70 | ≥ 70 | ≥ 70 | – | – | –
1.69 | 4.8 | – | – | CCN(C)C=Nc1cc(Br)c(Oc2ccnc(Sc3ccccc3)n2)cc1C [I.037, N'-[5-bromo-2-methyl-4-(2-phenylsulfanylpyrimidin-4-yl)oxyphenyl]-N-ethyl-N-methylmethan-imidamide] | ≥ 70 | ≥ 70 | ≥ 70 | – | – | –
– | – | 1.52 | 4.55 | CCN(C)C=Nc1cc(C)c(Oc2ccnc(Sc3ccccc3)n2)cc1C [I.039, N'-[2,5-dimethyl-4-(2-phenylsulfanylpyrimidin-4-yl)oxyphenyl]-N-ethyl-N-methylmethanimid-amide] | – | – | – | at least 70% | at least 70% | at least 70%
1.55 | – | – | – | CCN(C)C=Nc1cc(C)c(Oc2ccnc(SCC3CC3)n2)cc1C [I.040, N'-[4-[2-(cyclopropylmethylsulfanyl)pyrimidin-4-yl]oxy-2,5-dimethylphenyl]-N-ethyl-N-methylmethanimidamide] | ≥ 70 | ≥ 70 | ≥ 70 | – | – | –
– | – | 1.63 | 4.82 | CCN(C)C=Nc1cc(C)c(Oc2ccnc(SCc3ccccc3)n2)cc1C [I.042, N'-[4-(2-benzylsulfanylpyrimidin-4-yl)oxy-2,5-dimethylphenyl]-N-ethyl-N-methylmethanimid-amide] | – | – | – | at least 70% | at least 70% | at least 70%
1.63 | 4.5 | – | – | CCN(C)C=Nc1cc(C)c(Oc2ccnc(SC(C)(C)C)n2)cc1Cl [I.045, N'-[4-(2-tert-butylsulfanylpyrimidin-4-yl)oxy-2-chloro-5-methylphenyl]-N-ethyl-N-methyl-methanimidamide] | ≥ 70 | ≥ 70 | ≥ 70 | – | – | –
